Data reported in patent US20050176806A1, “Use of substituted cyanopyrrolidines and combination preparations containing them for treating hyperlipidemia and associated diseases” (priority 2002, published 2005).

System: patients with a diagnosis of Type 2 diabetes mellitus
Test: Evaluation of the Effects of Compound IC on Human Lipid Profiles
Format: in vivo
Conditions: compound IC 100 mg or 200 mg OD for four weeks, compared to placebo
From the text: Evaluation of the Effects of Compound IC on Human Lipid Profiles Sixty (60) patients comprised of male and non-fertile female patients aged at least 30 years with a diagnosis of Type 2 diabetes mellitus of at least three months duration, who have been treated with diet alone for at least one month prior to study entry were selected. The study was broken down into two periods. Period 1 was the four weeks prior to the beginning of the study, with period 2 being four weeks and being the actual study period when patients were treated with compound IC. Accordingly, study entry was Week −4 and the endpoint was after the fourth week of Period 2. Patients were randomized in a ratio of 1:1:1 as follows: compound IC at 200 mg once a day (OD), compound IC at 100 mg OD and placebo. The patients received compound IC 30 minutes before breakfast. There were 5 test days in the study. Patients attended as outpatients for fasting blood sampling at Week −4 (study entry), Week −2 and Week 2 and as inpatients for 24 hours on Week 0 (=baseline) and Week 4 (=endpoint). On the two inpatient test days, the total caloric intake of breakfast, lunch and dinner was standardized and standard test meals were administered in place of breakfast and dinner. Triglycerides, total cholesterol and lipid fractions (LDL, VLDL and HDL) were measured during 24 hours following the breakfast standard meal. […] On the two inpatient test days, patients fasted for at least 7 hours, i.e., no food or drinks (except water) after midnight on the day before the scheduled visit, and attended the clinic at 07.00 h. On each of the two test days, the total caloric intake during 24 hours was standardized and standard test meals were administered for breakfast (about 08.00 h) and dinner (about 18.00 h). Lunch was taken at approximately 13.00 h. On Day 1, no compound IC was administered but at Week 4, patients took compound IC as normal, 30 minutes before the standard breakfast. Triglycerides, total cholesterol and lipid fractions (LDL, VLDL and HDL) were evaluated. Triglycerides, total cholesterol and HDL were measured and LDL and VLDL calculated according to the method of Friedewald et al., “Estimation of the Concentration of Low-Density Lipoprotein Cholesterol Without the Use of the Preparative Centrifuge”, Clin. Chem., Vol. 18, No. 6, pp. 499-502 (1972).

[1] = calculated according to Friedewald et al.
[2] = measured during 24 hours following breakfast standard meal

N#C[C@@H]1CCCN1C(=O)CNC12CC3CC(CC(O)(C3)C1)C2 [compound IC]
markedly lowered: levels of LDL [1] | levels of VLDL [1] | levels of total cholesterol [2] | levels of triglyceride [2]
